Where “and” joins values, the source holds several entries; their conditions need not be identical. Equal values may be shown once. Non-standard residues stand in square brackets, D forms with d. Residues, ends and D or L forms follow the SMILES beside them. *: point of attachment. Aib = CC(C)(N)C(=O)O; X1 = CCC(C)C(CO)N*
Key:
[1] = system: A-549; assay: cells; format: cell-based, human; settings: for % growth inhibition: A-549, 20 μM, 20 µM; for % age growth inhibition: A-549, 10 μM, 10 µM
Protocol: (§1) For Cytotoxic assay, the MTT assay is useful for measuring the effect of a wide range of compounds on the in vitro growth of either normal or cancer cell lines. The assay was set up in a 96-well, flat-bottomed polystyrene microtiter plate. 3-5000 cancer cells were suspended per well in appropriate growth medium, and the cells were added in duplicate wells (triplicates were preferred). It was preferable to add the cells to the required number of wells in the plate prior to adding the peptaibol. After the cells were added to the plate, it was placed on an incubator for overnight incubation. After overnight incubation, the peptaibol was added at defined concentrations of 10, 20 and 50 μM to each set of duplicate wells and incubated for 48 hrs in CO2 incubator. The peptaibol was dissolved in dimethyl sulfoxide (DMSO) for the final addition. After 48 hr incubation, the MTT stock solution (2.5 μg/ml) was diluted with an equal volume of tissue culture medium and 20 μl of this solution was added directly to each well with a multichannel pipette. The plates were returned to the incubator for a period of at least 4 h. After 4 hr incubation, the plates were centrifuged at 1000 rpm for 10 min at ambient temperature, followed by inversion of the plates and blotting of excess medium. 150 μl of working DMSO was added to solubilize the MTT formazan product. A standard micro plate reader with adjustable wavelength across the visible spectrum was used. The OD values at 570 nm obtained for each set of triplicates corresponding to a specific concentration of a peptaibol was then transferred into a spreadsheet program.
(§2) Cytotoxicity assay was performed on a panel of cancer cell lines using fraction 4 (HF-4) as a test material. In order to determine their effect on cell proliferation, A-549 (lung cell line), HEP-2 (liver cell line), MCF-7 (breast cell line), monkey normal cell line (CV-1), OVCAR-5 (ovary cell line) and THP-1 (leukemia cell line) were treated at indicated concentration of 50 μM for 48 h. […] 5-flurouracil and adriyamycin were used as the positive controls; 5-flurouracil inhibited the growth of lung and leukemia cancer cell lines upto 75% and 83% respectively. Moreover adriyamycin used at 1 μM could inhibit the proliferation of MCF-7 cells upto 73%.
(§3) Cytotoxicity assay based on MTT was performed on a panel of cancer cell lines using brachiatin D as a test material. […] 5-flurouracil and adriyamycin were used as the positive controls; 5-flurouracil inhibited the growth of lung and leukemia cancer cell lines upto 73%, […] 88% respectively. Adriyamycin used at 1 μM could inhibit the proliferation of MCF-7 cells upto 77%.

[2] = system: THP-1; assay: cells; format: cell-based, human; settings: for % growth inhibition: THP-1, 20 μM, 20 µM
Protocol: as §1, §2, §3

[3] = system: HOP-62; assay: MTT cytotoxicity assay, HOP-62 lung cell line; format: cell-based, human
Protocol: as §1, §3

[4] = system: MCF-7; assay: MTT cytotoxicity assay, MCF-7 breast cell line; format: cell-based, human; settings: for % growth inhibition: MCF-7, 1 μM
Protocol: as §1
Cytotoxicity assay was performed on a panel of cancer cell lines using fraction 4 (HF-4) as a test material. In order to determine their effect on cell proliferation, A-549 (lung cell line), HEP-2 (liver cell line), MCF-7 (breast cell line), monkey normal cell line (CV-1), OVCAR-5 (ovary cell line) and THP-1 (leukemia cell line) were treated at indicated concentration of 50 μM for 48 h. […]

[5] = system: MiaPaCa-2; assay: MTT cytotoxicity assay, MiaPaCa-2 pancreatic cell line; format: cell-based, human; settings: MiaPaCa-2, 10 μM
Protocol: as §1, with “150 μl of working DMSO was added to solubilize the MTT formazan product.” left out, “The OD values at 570 nm obtained for each set of triplicates corresponding to a specific concentration of a peptaibol was then transferred into a spreadsheet program.” left out

[6] = system: PC-3; assay: MTT cytotoxicity assay, PC-3 prostate cell line; format: cell-based, human; settings: PC-3, 10 μM
Protocol: as §1, with “150 μl of working DMSO was added to solubilize the MTT formazan product.” left out, “The OD values at 570 nm obtained for each set of triplicates corresponding to a specific concentration of a peptaibol was then transferred into a spreadsheet program.” left out

[7] = system: IL-6; assay: IL-6 in LPS stimulated cell culture supernatant (ELISA); format: cell-based, mouse; settings: LPS 1 μg/ml, 24 h
Protocol: (§4) For the estimation of pro-inflammatory cytokines (TNF-α, IL-1β and IL-6) in spleen cell culture supernatant, the splenocytes (2×10^6 cells) were seeded into a 96-well flat-bottom microtiter plate in 100 μl complete medium [RPMI 1640 supplemented with 12 mM HEPES (pH 7.1), 0.05 mM 2-mercaptoethanol, 100 IU/mL penicillin, 100 μg/mL streptomycin and 10% FCS]. Thereafter, variable does of purified peptaibol (brachiatin D) (0.001, 0.01 and 0.1 μM) were added giving a final volume of 200 μl. After subsequent stimulation with 1 μg/ml LPS for 24 h, the supernatants were harvested. The concentrations of TNF-α, IL-1β and IL-6 in culture supernatants were measured using mouse TNF-α, IL-1β and IL-6 ELISA kits (R&D Systems, USA), as per the instructions of the manufacturer
as §4, with “For” for “For the”, “medium.” for “medium [RPMI 1640 supplemented with 12 mM HEPES (pH 7.1), 0.05 mM 2-mercaptoethanol, 100 IU/mL penicillin, 100 μg/mL streptomycin and 10% FCS].”, “brachiatin D” for “peptaibol (brachiatin D)”, “manufacturer. […]” for “manufacturer”

[8] = system: NO; assay: Inhibition of nitric oxide (nitrite) in LPS treated macrophages; format: cell-based, mouse
Protocol: NO is a short-lived molecule. […] Large quantity of nitrite is produced by macrophage when stimulated with LPS. But when cells were treated with brachiatin D, it was observed that brachiatin D inhibited LPS stimulated production of nitrite (p<0.001 at 0.001 μM dose).

[9] = system: TNF-α; assay: TNF-α in LPS stimulated cell culture supernatant (ELISA); format: cell-based, mouse; settings: LPS 1 μg/ml, 24 h, dose dependent, 0.001-0.1 dose range
Protocol: as §4
as §4, with “For” for “For the”, “medium.” for “medium [RPMI 1640 supplemented with 12 mM HEPES (pH 7.1), 0.05 mM 2-mercaptoethanol, 100 IU/mL penicillin, 100 μg/mL streptomycin and 10% FCS].”, “brachiatin D” for “peptaibol (brachiatin D)”, “manufacturer. […]” for “manufacturer”

[10] = system: IL-1β; assay: IL-1β in LPS stimulated cell culture supernatant (ELISA); format: cell-based, mouse; settings: LPS 1 μg/ml, 24 h
Protocol: as §4
as §4, with “For” for “For the”, “medium.” for “medium [RPMI 1640 supplemented with 12 mM HEPES (pH 7.1), 0.05 mM 2-mercaptoethanol, 100 IU/mL penicillin, 100 μg/mL streptomycin and 10% FCS].”, “brachiatin D” for “peptaibol (brachiatin D)”, “manufacturer. […]” for “manufacturer”

[11] = system: lymphocyte proliferation; assay: Lymphocyte proliferation assay (splenocytes, MTT); format: cell-based, mice; settings: concentration range 0.001 μM-10 μM
Excerpt: For Lymphocyte Proliferation Assay, the organic crude extract and then the purified peptaibol was taken for lymphocyte proliferation assay to check their activity by the following procedure. The mice spleen was collected from a live animal after sacrificing it under aseptic conditions in HBSS. The spleen was then minced using a pair of scissors and passed through a fine steel mesh to obtain a homogeneous cell suspension and the erythrocytes were lysed with ammonium chloride (0.8%, w/v). After centrifugation (380×g at 4° C. for 10 min), the pelleted cells were washed three times with PBS and resuspended in complete medium [RPMI 1640 supplemented with 12 mM HEPES (pH 7.1), 0.05 mM 2-mercaptoethanol, 100 IU/mL penicillin, 100 µg/mL streptomycin and 10% FCS]. The cell number was counted with a haemocytometer by the trypan blue dye exclusion technique. Cell viability exceeded 95%.
Splenocytes (2×10^6 cells) were then seeded into a 96-well flat-bottom microtiter plate in 100 μl complete medium. Thereafter, variable doses of the test material along with LPS (1 μg/ml) to stimulate B cell proliferation were added giving a final volume of 200 μl. Test materials used in this assay were variable doses of the purified peptaibol (0.001, 0.01 and 0.1 μM). […] 200 μl of DMSO (192 μl DMSO with 8 μl IN HCl) was added to each well, and the absorbance was determined in an ELISA reader at 570 nm after 15 min. […]

In the case of O=c1[nH]cc(F)c(=O)[nH]1 [5-Fluorouracil, reference compound], the “% growth inhibition” value [1] is reported as 75% and 73%, the inhibition at 20 µM ([1]; Homo sapiens, A549, A-549, 20 μM, read-out: % growth inhibition) is reported as ≤ 75% and the inhibition at 20 µM ([2]; Homo sapiens, THP-1, THP-1, 20 μM, read-out: % growth inhibition) is reported as ≤ 83%. The “% growth inhibition” value [2] was 83% and 88%, the “% age growth inhibition” value ([3]; HOP-62, 20 μM, 20 µM) was 81% and the inhibition at 20 µM ([3]; Homo sapiens, HOP-62, HOP-62, 20 μM, read-out: % age growth inhibition) was ≤ 81%.

For COc1cccc2c1C(=O)c1c(O)c3c(c(O)c1C2=O)C[C@@](O)(C(=O)CO)C[C@@H]3O[C@H]1C[C@H](N)[C@H](O)[C@H](C)O1 [Adriyamycin], the “% growth inhibition” value [4] was 73% and the “% growth inhibition” value ([4]; 1 µM) was ≤ 73%.

With CCC(C)C(CO)NC(=O)C1CCCN1C(=O)C(CC(C)C)NC(=O)C(CC(N)=O)NC(=O)C(C)(C)NC(=O)C1CCCN1C(=O)C(C)(C)NC(=O)C(CC(C)C)NC(=O)C(C)(C)NC(=O)C(CC(N)=O)NC(=O)C(C)(C)NC(C)=O (stereo not drawn) [Brachiatin D, AcAib-Asn-Aib-Leu-Aib-Pro-Aib-Asn-Leu-Pro-Ileuol] (Ac-[Aib]N[Aib]L[Aib]P[Aib]NLP-X1; configuration not given here) the “% age growth inhibition” value ([4]; MCF-7, 10 μM) was 100%, the “% age growth inhibition” value [5] was 100% and the “% age growth inhibition” value [6] was 100%. For the same molecule, the “% age growth inhibition” value [1] was 63%, the “% age growth inhibition” value ([1]; listed as brachiatin D) was ≤ 63% and the “% growth inhibition” value [1] was 96%. For the same molecule, the “% growth inhibition” value ([1]; listed as brachiatin D) was > 95%, the “% age growth inhibition” value ([2]; THP-1, 10 μM) was 56% and the “% growth inhibition” value [2] was 77%. For the same molecule, the “% growth inhibition” value ([2]; listed as brachiatin D) was > 75%, the “sensitivity of the cell line to cytotoxic effects” value ([3]; HOP-62) was “much resistance” and the “% age growth inhibition” value ([3]; HOP-62, 10 μM) was 21%. For the same molecule, the “% age growth inhibition” value ([3]; HOP-62, 20 μM) was 35%, the “effect on LPS induced IL-6” value [7] was “inhibited” and the “LPS stimulated production of nitrite” value ([8]; 0.001 μM dose, p<0.001) was “inhibited”. The NO production ([8]; 0.1 μM, p<0.05) was “Marginal increase”, the “inhibition of TNF-α production” value [9] was “up to 42%” and the “effect on LPS induced IL-1β” value [10] was “inhibited”. The “activity against lymphocyte proliferation” value [11] was “good activity”.
